Measured values published in patent US8735322B2, “Herbicides” (Syngenta Limited, priority 2008, dated 2014).

Legend:
Format in all cases: in vivo
Setaria faberi (SETFA) [1] = assay: Example B post-emergence herbicidal activity, glasshouse pot test; settings: 312 h, rate 1000 g/ha, evaluated after 13 days, read-out: herbicidal damage SETFA (100=total damage to plant; 0=no damage to plant)
Description: (§1) Seeds of a variety of test species were sown in standard soil in pots. After cultivation for one day (pre-emergence) or after 8 days cultivation (post-emergence) under controlled conditions in a glasshouse (at 24/16° C., day/night; 14 hours light; 65% humidity), the plants were sprayed with an aqueous spray solution derived from the formulation of the technical active ingredient in acetone/water (50:50) solution containing 0.5% Tween 20 (polyoxyethelyene sorbitan monolaurate, CAS RN 9005-64-5). The test plants were then grown in a glasshouse under controlled conditions in a glasshouse (at 24/16° C., day/night; 14 hours light; 65% humidity) and watered twice daily. After 13 days for pre and post-emergence, the test was evaluated (100=total damage to plant; 0=no damage to plant). Alopecurus myosuroides (ALOMY), Avena fatua (AVEFA), Setaria faberi (SETFA), Echinochloa crus-galli (ECHCG), Solanum nigrum (SOLNI) and Amaranthus retroflexus (AMARE) Post-Emergence Activity

Solanum nigrum (SOLNI) [2] = assay: as above; settings: 312 h, rate 1000 g/ha, evaluated after 13 days, read-out: herbicidal damage SOLNI (100=total damage to plant; 0=no damage to plant)
Description: as §1

Avena fatua (AVEFA) [3] = assay: as above; settings: 312 h, rate 1000 g/ha, evaluated after 13 days, read-out: herbicidal damage AVEFA (100=total damage to plant; 0=no damage to plant)
Description: as §1

[4] = test system: Echinochloa crus-galli (ECHCG); assay: as above; settings: 312 h, rate 1000 g/ha, evaluated after 13 days, read-out: herbicidal damage ECHCG (100=total damage to plant; 0=no damage to plant)
Description: as §1

[5] = test system: Alopecurus myosuroides (ALOMY); assay: as above; settings: 312 h, rate 1000 g/ha, evaluated after 13 days, read-out: herbicidal damage ALOMY (100=total damage to plant; 0=no damage to plant)
Description: as §1

[6] = test system: Amaranthus retroflexus (AMARE); assay: as above; settings: 312 h, rate 1000 g/ha, evaluated after 13 days, read-out: herbicidal damage AMARE (100=total damage to plant; 0=no damage to plant)
Description: as §1

Setaria faberi (SETFA) [7] = assay: Example B pre-emergence herbicidal activity, glasshouse pot test; settings: 312 h, rate 1000 g/ha, evaluated after 13 days, read-out: herbicidal damage SETFA (100=total damage to plant; 0=no damage to plant)
Description: as §1, with “Pre-Emergence” for “Post-Emergence”

Solanum nigrum (SOLNI) [8] = assay: as above; settings: 312 h, rate 1000 g/ha, evaluated after 13 days, read-out: herbicidal damage SOLNI (100=total damage to plant; 0=no damage to plant)
Description: as §1, with “Pre-Emergence” for “Post-Emergence”

Avena fatua (AVEFA) [9] = assay: as above; settings: 312 h, rate 1000 g/ha, evaluated after 13 days, read-out: herbicidal damage AVEFA (100=total damage to plant; 0=no damage to plant)
Description: as §1, with “Pre-Emergence” for “Post-Emergence”

[10] = test system: Echinochloa crus-galli (ECHCG); assay: as above; settings: 312 h, rate 1000 g/ha, evaluated after 13 days, read-out: herbicidal damage ECHCG (100=total damage to plant; 0=no damage to plant)
Description: as §1, with “Pre-Emergence” for “Post-Emergence”

[11] = test system: Alopecurus myosuroides (ALOMY); assay: as above; settings: 312 h, rate 1000 g/ha, evaluated after 13 days, read-out: herbicidal damage ALOMY (100=total damage to plant; 0=no damage to plant)
Description: as §1, with “Pre-Emergence” for “Post-Emergence”

[12] = test system: Amaranthus retroflexus (AMARE); assay: as above; settings: 312 h, rate 1000 g/ha, evaluated after 13 days, read-out: herbicidal damage AMARE (100=total damage to plant; 0=no damage to plant)
Description: as §1, with “Pre-Emergence” for “Post-Emergence”

`Cc1ccc(-c2ccc(Cl)cc2)cc1C1=C(O)CC(CC2OCC(C3CCOCC3)O2)CC1=O` (stereo not drawn) [Compound A-59] showed a pest or weed control at 1000 g/ha (Setaria faberi (SETFA) [1]) of 90%, a pest or weed control at 1000 g/ha (Solanum nigrum (SOLNI) [2]) of 0% and a pest or weed control at 1000 g/ha (Avena fatua (AVEFA) [3]) of 20%. The pest or weed control at 1000 g/ha [4] was 90%, the pest or weed control at 1000 g/ha [5] was 70% and the pest or weed control at 1000 g/ha [6] was 0%. It also gave a pest or weed control at 1000 g/ha (Setaria faberi (SETFA) [7]) of 60%, a pest or weed control at 1000 g/ha (Solanum nigrum (SOLNI) [8]) of 0% and a pest or weed control at 1000 g/ha (Avena fatua (AVEFA) [9]) of 0%. For the same compound, the pest or weed control at 1000 g/ha [10] was 0%, the pest or weed control at 1000 g/ha [11] was 20% and the pest or weed control at 1000 g/ha [12] was 0%.

Work on `Cc1ccc(-c2ccc(Cl)cc2)cc1C1=C(O)CC(CC2OCC(CC3CCOCC3)O2)CC1=O` (stereo not drawn) [Compound A-60] yielded a pest or weed control at 1000 g/ha (Setaria faberi (SETFA) [1]) of 90%, a pest or weed control at 1000 g/ha (Solanum nigrum (SOLNI) [2]) of 0% and a pest or weed control at 1000 g/ha (Avena fatua (AVEFA) [3]) of 10%. It also gave a pest or weed control at 1000 g/ha [4] of 90%, a pest or weed control at 1000 g/ha [5] of 60% and a pest or weed control at 1000 g/ha [6] of 0%. The pest or weed control at 1000 g/ha (Setaria faberi (SETFA) [7]) was 30%, the pest or weed control at 1000 g/ha (Solanum nigrum (SOLNI) [8]) was 0% and the pest or weed control at 1000 g/ha (Avena fatua (AVEFA) [9]) was 0%. The pest or weed control at 1000 g/ha [10] was 30%, the pest or weed control at 1000 g/ha [11] was 0% and the pest or weed control at 1000 g/ha [12] was 0%.

`Cc1ccc(-c2ccc(Cl)cc2)cc1C1=C(O)CC(CC2O[C@H]3COC[C@H]3O2)CC1=O` (stereo partly drawn) [Compound A-61] gave a pest or weed control at 1000 g/ha (Setaria faberi (SETFA) [1]) of 100%, a pest or weed control at 1000 g/ha (Solanum nigrum (SOLNI) [2]) of 0% and a pest or weed control at 1000 g/ha (Avena fatua (AVEFA) [3]) of 80%. It also gave a pest or weed control at 1000 g/ha [4] of 100%, a pest or weed control at 1000 g/ha [5] of 90% and a pest or weed control at 1000 g/ha [6] of 0%. The pest or weed control at 1000 g/ha (Setaria faberi (SETFA) [7]) was 30%, the pest or weed control at 1000 g/ha (Solanum nigrum (SOLNI) [8]) was 0% and the pest or weed control at 1000 g/ha (Avena fatua (AVEFA) [9]) was 0%. The pest or weed control at 1000 g/ha [10] was 20%, the pest or weed control at 1000 g/ha [11] was 0% and the pest or weed control at 1000 g/ha [12] was 0%.

In the case of `Cc1ccc(-c2ccc(Cl)cc2)cc1C1=C(O)CC(CC2OCCCCO2)CC1=O` (stereo not drawn) [Compound A-62], the pest or weed control at 1000 g/ha (Setaria faberi (SETFA) [1]) is reported as 100%, the pest or weed control at 1000 g/ha (Solanum nigrum (SOLNI) [2]) is reported as 0% and the pest or weed control at 1000 g/ha (Avena fatua (AVEFA) [3]) is reported as 80%. It also gave a pest or weed control at 1000 g/ha [4] of 100%, a pest or weed control at 1000 g/ha [5] of 90% and a pest or weed control at 1000 g/ha [6] of 0%. For the same compound, the pest or weed control at 1000 g/ha (Setaria faberi (SETFA) [7]) was 60%, the pest or weed control at 1000 g/ha (Solanum nigrum (SOLNI) [8]) was 0% and the pest or weed control at 1000 g/ha (Avena fatua (AVEFA) [9]) was 0%. The pest or weed control at 1000 g/ha [10] was 50%, the pest or weed control at 1000 g/ha [11] was 20% and the pest or weed control at 1000 g/ha [12] was 0%.

`COCC1COC(CC2CC(=O)C(c3cc(-c4ccc(Cl)cc4)ccc3C)=C(O)C2)O1` (stereo not drawn) [Compound A-63] gave a pest or weed control at 1000 g/ha (Setaria faberi (SETFA) [1]) of 100%, a pest or weed control at 1000 g/ha (Solanum nigrum (SOLNI) [2]) of 0% and a pest or weed control at 1000 g/ha (Avena fatua (AVEFA) [3]) of 90%. For the same compound, the pest or weed control at 1000 g/ha [4] was 100%, the pest or weed control at 1000 g/ha [5] was 90% and the pest or weed control at 1000 g/ha [6] was 0%. For the same compound, the pest or weed control at 1000 g/ha (Setaria faberi (SETFA) [7]) was 70%, the pest or weed control at 1000 g/ha (Solanum nigrum (SOLNI) [8]) was 0% and the pest or weed control at 1000 g/ha (Avena fatua (AVEFA) [9]) was 0%. It also gave a pest or weed control at 1000 g/ha [10] of 20%, a pest or weed control at 1000 g/ha [11] of 0% and a pest or weed control at 1000 g/ha [12] of 20%.

For `Cc1ccc(-c2ccc(Cl)cc2)cc1C1=C(O)CC(CC2OCC(C)CO2)CC1=O` (stereo not drawn) [Compound A-64], the pest or weed control at 1000 g/ha (Setaria faberi (SETFA) [1]) was 100%, the pest or weed control at 1000 g/ha (Solanum nigrum (SOLNI) [2]) was 0% and the pest or weed control at 1000 g/ha (Avena fatua (AVEFA) [3]) was 80%. The pest or weed control at 1000 g/ha [4] was 100%, the pest or weed control at 1000 g/ha [5] was 80% and the pest or weed control at 1000 g/ha [6] was 0%. It also gave a pest or weed control at 1000 g/ha (Setaria faberi (SETFA) [7]) of 50%, a pest or weed control at 1000 g/ha (Solanum nigrum (SOLNI) [8]) of 0% and a pest or weed control at 1000 g/ha (Avena fatua (AVEFA) [9]) of 0%. The pest or weed control at 1000 g/ha [10] was 50%, the pest or weed control at 1000 g/ha [11] was 0% and the pest or weed control at 1000 g/ha [12] was 0%.

In the case of `Cc1ccc(-c2ccc(Cl)cc2)cc1C1=C(O)CC(CC2OCC3(CC3)CO2)CC1=O` (stereo not drawn) [Compound A-65], the pest or weed control at 1000 g/ha (Setaria faberi (SETFA) [1]) is reported as 70%, the pest or weed control at 1000 g/ha (Solanum nigrum (SOLNI) [2]) is reported as 60% and the pest or weed control at 1000 g/ha (Avena fatua (AVEFA) [3]) is reported as 20%. It also gave a pest or weed control at 1000 g/ha [4] of 70%, a pest or weed control at 1000 g/ha [5] of 40% and a pest or weed control at 1000 g/ha [6] of 90%. For the same compound, the pest or weed control at 1000 g/ha (Setaria faberi (SETFA) [7]) was 60%, the pest or weed control at 1000 g/ha (Solanum nigrum (SOLNI) [8]) was 20% and the pest or weed control at 1000 g/ha (Avena fatua (AVEFA) [9]) was 0%. For the same compound, the pest or weed control at 1000 g/ha [10] was 70%, the pest or weed control at 1000 g/ha [11] was 20% and the pest or weed control at 1000 g/ha [12] was 30%.
